Source: article PMC7347136 (PLoS ONE, 2020)

Experiments:
Test in all cases: Carna kinase panel screen
Assay type in all cases: biochemical
Details in all cases: read-out: % Inhibition ± SD
ALK = biological target: T1, ALK (Homo sapiens, UniProt Q9UM73)
T1 construct: purchased Carna Biosciences
Method in brief: (§1)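 Ten concentrations per compound, ATP approximately at Km, percent inhibition calculated per well and fitted to a 4-parameter logistic for IC50.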

AMPKa2 = biological target: T2, AMPKa2 (Homo sapiens, UniProt P54646)
T2 construct: purchased Carna Biosciences
Method in brief: as §1

AurC = biological target: T3, AurC (Homo sapiens, UniProt Q9UQB9)
T3 construct: purchased Carna Biosciences
T3 sequence (Q9UQB9 whole entry): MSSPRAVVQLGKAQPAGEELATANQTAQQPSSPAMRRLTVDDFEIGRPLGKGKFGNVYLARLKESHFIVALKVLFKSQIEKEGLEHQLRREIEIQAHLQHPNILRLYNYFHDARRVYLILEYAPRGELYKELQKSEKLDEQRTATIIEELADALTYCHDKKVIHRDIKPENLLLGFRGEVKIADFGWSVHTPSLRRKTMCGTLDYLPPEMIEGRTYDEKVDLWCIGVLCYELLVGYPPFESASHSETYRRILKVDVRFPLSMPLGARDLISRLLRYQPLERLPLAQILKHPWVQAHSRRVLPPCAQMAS
Method in brief: (§2)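 ATP was used at roughly Km levels while compounds were titrated over a 10-point curve. IC50 values came from four-parameter logistic fits of concentration versus percentage inhibition.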

CDK2 = biological target: T4, CDK2 (Homo sapiens, UniProt P24941)
T4 construct: purchased Carna Biosciences
Method in brief: as §1

CK1e = biological target: T5, CK1e (Homo sapiens, UniProt P49674)
T5 construct: purchased Carna Biosciences
Method in brief: as §1

CLK2 = biological target: T6, CLK2 (Homo sapiens, UniProt P49760)
T6 construct: purchased Carna Biosciences
Method in brief: as §1

CaMK2g = biological target: T7, CaMK2g (Homo sapiens, UniProt Q13555)
T7 construct: purchased Carna Biosciences
Method in brief: as §2

CaMK4 = biological target: T8, CaMK4 (Homo sapiens, UniProt Q16566)
T8 construct: purchased Carna Biosciences
Method in brief: as §1

DYRK1A = biological target: T9, DYRK1A (Homo sapiens, UniProt Q13627)
T9 construct: purchased Carna Biosciences
Method in brief: as §2

DYRK1B = biological target: T10, DYRK1B (Homo sapiens, UniProt Q9Y463)
T10 construct: purchased Carna Biosciences
Method in brief: as §1

EGFR[T790M] = biological target: T11, EGFR[T790M] (Homo sapiens, UniProt P00533, T790M)
T11 construct: purchased Carna Biosciences
Method in brief: as §1

Erk1 = biological target: T12, Erk1 (Homo sapiens, UniProt P27361)
T12 construct: purchased Carna Biosciences
Method in brief: as §2

Erk5 = biological target: T13, Erk5 (Homo sapiens, UniProt Q13164)
T13 construct: purchased Carna Biosciences
T13 sequence (Q13164 whole entry): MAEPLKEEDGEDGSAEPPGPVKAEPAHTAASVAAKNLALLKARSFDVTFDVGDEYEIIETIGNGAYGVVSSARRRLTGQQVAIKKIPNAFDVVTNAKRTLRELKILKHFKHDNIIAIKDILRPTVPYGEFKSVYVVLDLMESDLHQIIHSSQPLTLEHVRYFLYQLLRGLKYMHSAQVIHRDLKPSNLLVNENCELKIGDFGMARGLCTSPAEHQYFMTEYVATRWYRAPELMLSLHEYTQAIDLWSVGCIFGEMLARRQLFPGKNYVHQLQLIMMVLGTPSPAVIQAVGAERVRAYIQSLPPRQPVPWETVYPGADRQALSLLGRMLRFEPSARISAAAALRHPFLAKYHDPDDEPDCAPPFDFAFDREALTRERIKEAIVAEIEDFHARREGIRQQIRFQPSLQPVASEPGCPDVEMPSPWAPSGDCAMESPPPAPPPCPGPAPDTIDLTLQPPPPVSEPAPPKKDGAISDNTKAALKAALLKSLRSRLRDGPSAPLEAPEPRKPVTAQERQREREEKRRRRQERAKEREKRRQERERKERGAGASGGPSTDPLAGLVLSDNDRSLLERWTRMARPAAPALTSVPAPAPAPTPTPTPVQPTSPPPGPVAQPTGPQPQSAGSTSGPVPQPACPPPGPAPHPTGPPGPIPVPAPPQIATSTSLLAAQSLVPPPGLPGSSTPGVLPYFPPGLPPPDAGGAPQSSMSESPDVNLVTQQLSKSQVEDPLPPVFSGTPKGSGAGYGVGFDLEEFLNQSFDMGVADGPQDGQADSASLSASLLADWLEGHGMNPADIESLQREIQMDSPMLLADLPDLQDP
Method in brief: as §1

FES = biological target: T14, FES (Homo sapiens, UniProt P07332)
T14 construct: purchased Carna Biosciences
Method in brief: as §1

FGFR1 = biological target: T15, FGFR1 (Homo sapiens, UniProt P11362)
T15 construct: purchased Carna Biosciences
Method in brief: as §1

FGFR2 = biological target: T16, FGFR2 (Homo sapiens, UniProt P21802)
T16 construct: purchased Carna Biosciences
Method in brief: as §1

FGFR3[K650E] = biological target: T17, FGFR3[K650E] (Homo sapiens, UniProt P22607, K650E)
T17 construct: purchased Carna Biosciences
Method in brief: as §2

FGFR3[K650M] = biological target: T18, FGFR3[K650M] (Homo sapiens, UniProt P22607, K650M)
T18 construct: purchased Carna Biosciences
Method in brief: as §2

FLT1 = biological target: T19, FLT1 (Homo sapiens, UniProt P17948)
T19 construct: purchased Carna Biosciences
Method in brief: as §1

IKKb = biological target: T20, IKKb (Homo sapiens, UniProt O14920)
T20 construct: purchased Carna Biosciences
Method in brief: as §1

INSR = biological target: T21, INSR (Homo sapiens, UniProt P06213)
T21 construct: purchased Carna Biosciences
Method in brief: as §1

IRAK1 = biological target: T22, IRAK1 (Homo sapiens, UniProt P51617)
T22 construct: purchased Carna Biosciences
T22 sequence (P51617 whole entry): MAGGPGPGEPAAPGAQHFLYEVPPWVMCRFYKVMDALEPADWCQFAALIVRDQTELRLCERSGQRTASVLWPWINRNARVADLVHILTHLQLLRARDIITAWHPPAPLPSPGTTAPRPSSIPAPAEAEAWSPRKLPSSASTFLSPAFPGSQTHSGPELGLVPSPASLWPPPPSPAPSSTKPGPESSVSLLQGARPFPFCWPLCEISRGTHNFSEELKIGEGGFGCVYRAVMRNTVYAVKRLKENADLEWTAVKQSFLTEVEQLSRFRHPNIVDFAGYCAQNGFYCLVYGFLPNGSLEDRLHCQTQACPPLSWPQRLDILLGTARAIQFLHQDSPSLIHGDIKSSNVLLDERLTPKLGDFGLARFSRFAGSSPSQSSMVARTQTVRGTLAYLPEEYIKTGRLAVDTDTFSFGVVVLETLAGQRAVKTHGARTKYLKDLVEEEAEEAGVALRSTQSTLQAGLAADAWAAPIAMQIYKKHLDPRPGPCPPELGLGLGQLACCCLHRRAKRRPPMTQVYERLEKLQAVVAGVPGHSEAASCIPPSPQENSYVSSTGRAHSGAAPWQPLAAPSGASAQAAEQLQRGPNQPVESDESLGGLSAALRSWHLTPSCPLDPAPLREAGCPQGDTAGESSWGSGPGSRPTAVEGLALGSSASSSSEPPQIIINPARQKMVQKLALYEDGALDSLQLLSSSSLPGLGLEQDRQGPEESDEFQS
Method in brief: as §1

IRAK4 = biological target: T23, IRAK4 (Homo sapiens, UniProt Q9NWZ3)
T23 construct: purchased Carna Biosciences
Method in brief: as §1

KDR = biological target: T24, KDR (Homo sapiens, UniProt P35968)
T24 construct: purchased Carna Biosciences
Method in brief: as §1

KIT[V560G] = biological target: T25, KIT[V560G] (Homo sapiens, UniProt P10721, V560G)
T25 construct: purchased Carna Biosciences
Method in brief: as §2

MAP2K3 = biological target: T26, MAP2K3 (Homo sapiens, UniProt P46734)
T26 construct: purchased Carna Biosciences
Method in brief: as §2

MAP3K2 = biological target: T27, MAP3K2 (Homo sapiens, UniProt Q9Y2U5)
T27 construct: purchased Carna Biosciences
Method in brief: as §1

MAP4K2 = biological target: T28, MAP4K2 (Homo sapiens, UniProt Q12851)
T28 construct: purchased Carna Biosciences
Method in brief: as §2

MARK2 = biological target: T29, MARK2 (Homo sapiens, UniProt Q7KZI7)
T29 construct: purchased Carna Biosciences
Method in brief: as §1

MARK3 = biological target: T30, MARK3 (Homo sapiens, UniProt P27448)
T30 construct: purchased Carna Biosciences
Method in brief: as §1

MINK = biological target: T31, MINK (Homo sapiens, UniProt Q8N4C8)
T31 construct: purchased Carna Biosciences
Method in brief: as §1

MRCKa = biological target: T32, MRCKa (Homo sapiens, UniProt Q5VT25)
T32 construct: purchased Carna Biosciences
Method in brief: as §1

MSK1 = biological target: T33, MSK1 (Homo sapiens, UniProt O75582)
T33 construct: purchased Carna Biosciences
T33 sequence (O75582 whole entry): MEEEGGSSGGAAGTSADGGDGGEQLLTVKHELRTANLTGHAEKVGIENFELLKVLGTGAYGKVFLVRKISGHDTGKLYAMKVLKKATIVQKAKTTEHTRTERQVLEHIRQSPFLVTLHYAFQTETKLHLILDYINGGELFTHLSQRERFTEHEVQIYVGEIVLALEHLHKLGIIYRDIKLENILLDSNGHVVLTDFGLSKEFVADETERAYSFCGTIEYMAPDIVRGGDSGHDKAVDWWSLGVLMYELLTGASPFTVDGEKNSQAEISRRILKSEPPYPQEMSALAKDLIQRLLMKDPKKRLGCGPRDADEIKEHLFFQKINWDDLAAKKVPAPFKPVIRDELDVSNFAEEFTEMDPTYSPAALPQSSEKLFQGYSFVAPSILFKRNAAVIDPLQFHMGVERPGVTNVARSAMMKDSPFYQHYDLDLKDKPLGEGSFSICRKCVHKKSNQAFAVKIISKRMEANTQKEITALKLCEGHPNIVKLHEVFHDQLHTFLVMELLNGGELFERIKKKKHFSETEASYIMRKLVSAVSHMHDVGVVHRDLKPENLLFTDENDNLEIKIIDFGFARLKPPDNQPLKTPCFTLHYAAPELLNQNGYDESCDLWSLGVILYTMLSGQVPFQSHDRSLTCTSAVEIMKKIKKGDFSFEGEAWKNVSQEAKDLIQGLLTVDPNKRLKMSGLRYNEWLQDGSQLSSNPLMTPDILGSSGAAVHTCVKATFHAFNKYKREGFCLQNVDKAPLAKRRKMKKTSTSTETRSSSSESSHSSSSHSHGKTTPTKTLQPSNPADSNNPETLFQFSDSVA
Method in brief: as §1

MSK2 = biological target: T34, MSK2 (Homo sapiens, UniProt O75676)
T34 construct: purchased Carna Biosciences
Method in brief: as §1

MST4 = biological target: T35, MST4 (Homo sapiens, UniProt Q9P289)
T35 construct: purchased Carna Biosciences
T35 sequence (Q9P289 whole entry): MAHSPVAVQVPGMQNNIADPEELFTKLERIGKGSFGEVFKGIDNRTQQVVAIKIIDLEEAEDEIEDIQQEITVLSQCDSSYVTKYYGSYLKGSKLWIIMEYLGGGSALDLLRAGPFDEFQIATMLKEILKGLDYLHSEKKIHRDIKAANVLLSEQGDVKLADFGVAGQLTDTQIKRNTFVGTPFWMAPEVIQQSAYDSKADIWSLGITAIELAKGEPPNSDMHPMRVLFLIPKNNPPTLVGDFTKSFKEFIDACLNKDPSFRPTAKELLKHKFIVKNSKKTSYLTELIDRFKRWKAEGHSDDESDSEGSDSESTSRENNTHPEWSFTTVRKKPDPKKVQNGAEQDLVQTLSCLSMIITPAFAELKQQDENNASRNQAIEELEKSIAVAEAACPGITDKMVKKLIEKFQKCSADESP
Method in brief: as §1

PAK2 = biological target: T36, PAK2 (Homo sapiens, UniProt Q13177)
T36 construct: purchased Carna Biosciences
T36 sequence (Q13177 whole entry): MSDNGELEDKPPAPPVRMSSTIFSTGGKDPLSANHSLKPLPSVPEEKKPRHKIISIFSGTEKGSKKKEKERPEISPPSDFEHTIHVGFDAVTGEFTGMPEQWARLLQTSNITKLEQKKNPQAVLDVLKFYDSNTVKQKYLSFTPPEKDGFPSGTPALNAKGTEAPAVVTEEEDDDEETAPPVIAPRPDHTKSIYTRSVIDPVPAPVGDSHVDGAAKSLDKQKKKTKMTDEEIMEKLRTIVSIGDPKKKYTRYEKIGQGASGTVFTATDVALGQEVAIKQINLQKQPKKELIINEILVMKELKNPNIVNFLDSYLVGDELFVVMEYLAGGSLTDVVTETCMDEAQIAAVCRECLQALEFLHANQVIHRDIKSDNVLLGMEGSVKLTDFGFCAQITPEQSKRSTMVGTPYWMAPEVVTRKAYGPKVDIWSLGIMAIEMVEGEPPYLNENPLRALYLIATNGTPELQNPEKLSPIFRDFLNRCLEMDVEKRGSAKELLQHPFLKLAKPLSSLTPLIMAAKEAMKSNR
Method in brief: as §1

PIM2 = biological target: T37, PIM2 (Homo sapiens, UniProt Q9P1W9)
T37 construct: purchased Carna Biosciences
Method in brief: as §1

SRM = biological target: T38, SRM (Homo sapiens, UniProt Q9H3Y6)
T38 construct: purchased Carna Biosciences
Method in brief: as §1

TBK1 = biological target: T39, TBK1 (Homo sapiens, UniProt Q9UHD2)
T39 construct: purchased Carna Biosciences
Method in brief: as §1

TEC = biological target: T40, TEC (Homo sapiens, UniProt P42680)
T40 construct: purchased Carna Biosciences
T40 sequence (P42680 whole entry): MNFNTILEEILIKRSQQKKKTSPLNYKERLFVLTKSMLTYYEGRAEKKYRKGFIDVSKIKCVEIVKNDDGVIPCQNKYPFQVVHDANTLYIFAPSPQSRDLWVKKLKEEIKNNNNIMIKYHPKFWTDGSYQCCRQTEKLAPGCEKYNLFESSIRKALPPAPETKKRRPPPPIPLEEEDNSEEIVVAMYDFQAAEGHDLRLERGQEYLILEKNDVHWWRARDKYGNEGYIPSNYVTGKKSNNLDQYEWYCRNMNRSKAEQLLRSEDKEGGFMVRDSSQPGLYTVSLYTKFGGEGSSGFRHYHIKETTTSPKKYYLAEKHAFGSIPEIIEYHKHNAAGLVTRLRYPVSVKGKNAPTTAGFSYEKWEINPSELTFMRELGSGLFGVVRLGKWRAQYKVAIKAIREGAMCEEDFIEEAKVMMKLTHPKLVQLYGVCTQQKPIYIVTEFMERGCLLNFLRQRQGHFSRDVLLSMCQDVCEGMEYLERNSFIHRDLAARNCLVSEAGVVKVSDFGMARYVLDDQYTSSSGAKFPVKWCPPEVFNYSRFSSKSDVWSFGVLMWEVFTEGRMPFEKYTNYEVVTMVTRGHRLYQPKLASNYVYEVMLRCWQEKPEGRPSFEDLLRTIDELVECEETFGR
Method in brief: as §1

TRKC = biological target: T41, TRKC (Homo sapiens, UniProt Q16288)
T41 construct: purchased Carna Biosciences
T41 sequence (Q16288 32-839): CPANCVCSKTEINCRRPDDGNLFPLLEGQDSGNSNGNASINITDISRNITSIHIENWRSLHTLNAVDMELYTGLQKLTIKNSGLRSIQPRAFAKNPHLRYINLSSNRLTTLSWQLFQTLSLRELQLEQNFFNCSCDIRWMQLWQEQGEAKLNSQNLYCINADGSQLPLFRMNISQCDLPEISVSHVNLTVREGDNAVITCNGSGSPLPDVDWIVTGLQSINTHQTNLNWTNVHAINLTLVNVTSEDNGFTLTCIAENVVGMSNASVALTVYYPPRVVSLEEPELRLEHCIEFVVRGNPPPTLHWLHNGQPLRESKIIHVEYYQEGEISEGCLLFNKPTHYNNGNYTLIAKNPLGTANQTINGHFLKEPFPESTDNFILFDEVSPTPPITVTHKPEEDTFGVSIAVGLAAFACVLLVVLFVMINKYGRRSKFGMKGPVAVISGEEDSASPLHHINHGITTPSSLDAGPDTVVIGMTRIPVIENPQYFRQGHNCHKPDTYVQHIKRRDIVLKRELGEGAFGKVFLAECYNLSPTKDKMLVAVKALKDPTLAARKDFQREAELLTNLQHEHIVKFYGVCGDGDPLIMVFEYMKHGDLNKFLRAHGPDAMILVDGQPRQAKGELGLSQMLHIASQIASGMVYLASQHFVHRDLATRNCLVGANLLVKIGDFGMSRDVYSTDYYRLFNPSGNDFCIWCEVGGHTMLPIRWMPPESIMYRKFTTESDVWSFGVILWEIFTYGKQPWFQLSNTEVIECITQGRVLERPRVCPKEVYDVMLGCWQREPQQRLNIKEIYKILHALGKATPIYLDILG
Method in brief: as §1

TYRO3 = biological target: T42, TYRO3 (Homo sapiens, UniProt Q06418)
T42 construct: purchased Carna Biosciences
Method in brief: as §1

YES = biological target: T43, YES (Homo sapiens, UniProt P07947)
T43 construct: purchased Carna Biosciences
Method in brief: as §1

## CC[C@H](Nc1nc(NCc2cnc(C)cc2C)c2ncn(C(C)C)c2n1)[C@@H](C)O [Fadraciclib, 2-pentanol, 3-[[6-[[(4,6-dimethyl-3-pyridinyl)methyl]amino]-9-(1-methylethyl)-9Hpurin-2-yl]amino]-, (2R,3S)]
ALK
  inhibition at 1 µM: -9 ± 0.3%
AMPKa2
  inhibition at 1 µM: -12.8 ± 0.7%
AurC
  inhibition at 1 µM: 3 ± 0.2%
CDK2
  inhibition at 1 µM: 97.3%
CK1e
  inhibition at 1 µM: 19.8 ± 0.5%
CLK2
  inhibition at 1 µM: 87.8 ± 2%
CaMK2g
  inhibition at 1 µM: 12.5 ± 0.4%
CaMK4
  inhibition at 1 µM: -4.8 ± 0.1%
DYRK1A
  inhibition at 1 µM: 5.5 ± 0.7%
DYRK1B
  inhibition at 1 µM: 15.5 ± 1.3%
EGFR[T790M]
  inhibition at 1 µM: -9.6 ± 0.1%
Erk1
  inhibition at 1 µM: -6.5%
Erk5
  inhibition at 1 µM: 3.7 ± 0.1%
FES
  inhibition at 1 µM: 14.9 ± 1.1%
FGFR1
  inhibition at 1 µM: 7.8%
FGFR2
  inhibition at 1 µM: -17.6 ± 2.2%
FGFR3[K650E]
  inhibition at 1 µM: 5.6%
FGFR3[K650M]
  inhibition at 1 µM: 3.2 ± 0.1%
FLT1
  inhibition at 1 µM: 1.9%
IKKb
  inhibition at 1 µM: 0.2%
INSR
  inhibition at 1 µM: -12.2 ± 0.8%
IRAK1
  inhibition at 1 µM: 1.6 ± 0.1%
IRAK4
  inhibition at 1 µM: -10.1 ± 0.1%
KDR
  inhibition at 1 µM: -12.8 ± 0.1%
KIT[V560G]
  inhibition at 1 µM: 2.5 ± 0.1%
MAP2K3
  inhibition at 1 µM: -12.3 ± 0.3%
MAP3K2
  inhibition at 1 µM: -14.7 ± 0.8%
MAP4K2
  inhibition at 1 µM: 2 ± 0.1%
MARK2
  inhibition at 1 µM: -1.9 ± 0.1%
MARK3
  inhibition at 1 µM: -0.9 ± 0.1%
MINK
  inhibition at 1 µM: -15.8 ± 0.3%
MRCKa
  inhibition at 1 µM: -14.8 ± 0.1%
MSK1
  inhibition at 1 µM: 5.5 ± 0.4%
MSK2
  inhibition at 1 µM: -3.7%
MST4
  inhibition at 1 µM: -2.1%
PAK2
  inhibition at 1 µM: -2.9%
PIM2
  inhibition at 1 µM: 2.9 ± 0.2%
SRM
  inhibition at 1 µM: 3.5 ± 0.1%
TBK1
  inhibition at 1 µM: -4.8 ± 0.1%
TEC
  inhibition at 1 µM: -14.9%
TRKC
  inhibition at 1 µM: 7.2 ± 0.3%
TYRO3
  inhibition at 1 µM: -14.8 ± 0.2%
YES
  inhibition at 1 µM: -7 ± 0.1%
